Results: patent publication US20230167073A1 (Teijin Pharma Limited, priority 2020, published 2023)

biological target: T1, Human TRPC6 (Homo sapiens, UniProt Q9Y210); experiment: Evaluation of TRPC6 channel inhibitory activity (1), FLIPR Calcium 5 Assay Kit, OAG stimulation (Compound Nos. 1-1293); format: cell-based; settings: Human TRPC6 stably-expressing cells, OAG 30 μM, FLIPR Calcium 5 Assay Kit; read-out: Inhibitory activity (pIC50 class) (converted)
T1 construct: expressed in transfected cells
T1 sequence (Q9Y210 1-931): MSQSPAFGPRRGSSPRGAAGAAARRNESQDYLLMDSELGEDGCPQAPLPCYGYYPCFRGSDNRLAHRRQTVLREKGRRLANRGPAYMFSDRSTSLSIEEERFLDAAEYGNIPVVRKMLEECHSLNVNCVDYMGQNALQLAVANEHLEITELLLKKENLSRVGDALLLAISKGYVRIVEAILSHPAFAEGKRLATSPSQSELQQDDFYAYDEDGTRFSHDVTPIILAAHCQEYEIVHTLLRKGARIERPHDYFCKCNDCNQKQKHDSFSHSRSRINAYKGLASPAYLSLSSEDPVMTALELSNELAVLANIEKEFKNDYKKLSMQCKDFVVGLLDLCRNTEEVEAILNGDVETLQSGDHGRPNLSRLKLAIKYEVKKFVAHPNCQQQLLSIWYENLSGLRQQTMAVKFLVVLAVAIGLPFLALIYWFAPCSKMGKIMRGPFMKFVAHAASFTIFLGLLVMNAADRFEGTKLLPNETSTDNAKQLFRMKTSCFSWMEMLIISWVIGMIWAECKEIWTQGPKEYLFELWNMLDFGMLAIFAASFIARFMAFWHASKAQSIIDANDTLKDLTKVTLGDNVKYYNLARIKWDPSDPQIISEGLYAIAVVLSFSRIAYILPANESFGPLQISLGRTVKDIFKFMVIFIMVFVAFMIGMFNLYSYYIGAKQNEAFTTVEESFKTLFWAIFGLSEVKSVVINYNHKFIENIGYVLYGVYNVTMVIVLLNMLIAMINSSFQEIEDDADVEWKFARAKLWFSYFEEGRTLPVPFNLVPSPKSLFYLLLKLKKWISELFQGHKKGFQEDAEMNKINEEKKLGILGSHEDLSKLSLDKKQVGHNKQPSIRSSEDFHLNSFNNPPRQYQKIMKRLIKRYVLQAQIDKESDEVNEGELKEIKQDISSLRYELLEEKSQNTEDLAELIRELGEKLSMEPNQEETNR
Summary of the method: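 Stable human TRPC6 line; fluorescent Ca2+ dye loading, then 20 min compound exposure before 30 μM OAG trigger. Peak-minus-baseline signal converted to % inhibition against untreated and unstimulated wells; potency given as pIC50 band.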

Row | IC50 | Compound
1 | < 10 nM | Cc1cc(Oc2cc(C#N)ccc2-c2ccc(CC3(N)COC3)cn2)cc(N2CCOCC2)n1 [compound 562, 4-[5-[(3-aminooxetan-3-yl)methyl]pyridin-2-yl]-3-(2-methyl-6-morpholin-4-ylpyridin-4-yl)oxybenzonitrile]
2 | > 1000 nM | Cc1cc(Oc2cc(C#N)ccc2-c2ncc(OC3CNC3)cn2)cc(N2CCOCC2)n1 [compound 563, 4-[5-(azetidin-3-yloxy)pyrimidin-2-yl]-3-(2-methyl-6-morpholin-4 ylpyridin-4-yl)oxybenzonitrile]
3 | 10 to 1000 nM | Cc1cc(Oc2cc(C#N)ccc2-c2ccc(OC3CNC3)cn2)cc(N2CCOCC2)n1 [compound 564, 4-[5-(azetidin-3-yloxy)pyridin-2-yl]-3-(2-methyl-6-morpholin-4-ylpyridin-4-yl)oxybenzonitrile]
4 | > 1000 nM | Cc1cc(Oc2cc(C#N)ccc2-c2ccc(N3CC[C@H](N)C3=O)cn2)cc(N2CCOCC2)n1 [compound 565, 4-[5-[(3S)-3-amino-2-oxopyrrolidin-1-yl]pyridin-2-yl]-3-(2-methyl-6-morpholin-4-ylpyridin-4-yl)oxybenzonitrile]
5 | 10 to 1000 nM | Cc1cc(Oc2cc(C#N)ccc2-c2ccn(CCN)c(=O)c2)cc(N2CCOCC2)n1 [compound 566, 4-[1-(2-aminoethyl)-2-oxopyridin-4-yl]-3-(2-methyl-6-morpholin-4-ylpyridin-4-yl)oxybenzonitrile]
6 | 10 to 1000 nM | Cc1cc(Oc2cc(C#N)ccc2-c2ccnc(OCCN)c2)cc(N2CCOCC2)n1 [compound 567, 4-[2-(2-aminoethoxy)pyridin-4-yl]-3-(2-methyl-6-morpholin-4-ylpyridin-4-yl)oxybenzonitrile]
7 | > 1000 nM | Cc1cc(Oc2cc(C#N)ccc2-c2ccc(N3CC(N)CC3=O)cn2)cc(N2CCOCC2)n1 (stereo not shown) [compound 568, 4-[5-(4-amino-2-oxopyrrolidin-1-yl)pyridin-2-yl]-3-(2-methyl-6-morpholin-4-ylpyridin-4-yl)oxybenzonitrile]
8 | > 1000 nM | Cc1cc(Oc2cc(C#N)ccc2-c2ccc(N3CC[C@@H](N)C3=O)cn2)cc(N2CCOCC2)n1 [compound 569, 4-[5-[(3R)-3-amino-2-oxopyrrolidin-1-yl]pyridin-2-yl]-3-(2-methyl-6-morpholin-4-ylpyridin-4-yl)oxybenzonitrile]
9 | 10 to 1000 nM | Cn1nc(C2CC2)cc1Oc1cc(C#N)ccc1-c1cccn2c(CCN)nnc12 [compound 570, 4-[3-(2-aminoethyl)-[1,2,4]triazolo[4,3-a]pyridin-8-yl]-3-(5-cyclopropyl-2-methylpyrazol-3-yl)oxybenzonitrile]
10 | > 1000 nM | Cn1nc(C2CC2)cc1Oc1cc(C#N)ccc1-c1cccn2c(C3CNC3)nnc12 [compound 571, 4-[3-(azetidin-3-yl)-[1,2,4]triazolo[4,3-a]pyridin-8-yl]-3-(5-cyclopropyl-2-methylpyrazol-3-yl)oxybenzonitrile]
11 | 10 to 1000 nM | Cc1cc(Oc2cc(C#N)ccc2-c2ncc(CN)cn2)cc(-c2ccccn2)n1 [compound 572, 4-[5-(aminomethyl)pyrimidin-2-yl]-3-(2-methyl-6-pyridin-2-ylpyridin-4-yl)oxybenzonitrile]
12 | 10 to 1000 nM | Cn1nc(C2CC2)cc1Oc1cc(C#N)ccc1-c1cccn(CCN)c1=O [compound 573, 4-[1-(2-aminoethyl)-2-oxopyridin-3-yl]-3-(5-cyclopropyl-2-methylpyrazol-3-yl)oxybenzonitrile]
13 | 10 to 1000 nM | Cn1nc(-c2nccs2)cc1Oc1cc(C#N)ccc1-c1ncc([C@H](O)CN)cn1 [compound 574, 4-[5-[(1S)-2-amino-1-hydroxyethyl]pyrimidin-2-yl]-3-[2-methyl-5-(1,3-thiazol-2-yl)pyrazol-3-yl]oxybenzonitrile]
14 | < 10 nM | CC(C)Nc1cc(Oc2cc(C#N)ccc2-c2ccc(CCN)cn2)n(C)n1 [compound 575, 4-[5-(2-aminoethyl)pyridin-2-yl]-3-[2-methyl-5-(propan-2-ylamino)pyrazol-3-yl]oxybenzonitrile]
15 | > 1000 nM | Cn1nc(N)cc1Oc1cc(C#N)ccc1-c1ccc([C@H](O)CN)cn1 [compound 576, 4-[5-[(1S)-2-amino-1-hydroxyethyl]pyridin-2-yl]-3-(5-amino-2-methylpyrazol-3-yl)oxybenzonitrile]
16 | 10 to 1000 nM | Cn1nc(N)cc1Oc1cc(C#N)ccc1-c1ccc(CCN)cn1 [compound 577, 4-[5-(2-aminoethyl)pyridin-2-yl]-3-(5-amino-2-methylpyrazol-3-yl)oxybenzonitrile]

Row | IC50 | Compound
17 | 10 to 1000 nM | Cc1cc(Oc2cc(C#N)ccc2-c2ccc(CCCN)cc2)cc(N2CCOCC2)n1 [compound 578, 4-[4-(3-aminopropyl)phenyl]-3-(2-methyl-6-morpholin-4-ylpyridin-4-yl)oxybenzonitrile]
18 | 10 to 1000 nM | Cn1nc(-c2ccccc2)cc1Oc1cc(C#N)ccc1-c1ccc(CCCN)cc1 [compound 579, 4-[4-(3-aminopropyl)phenyl]-3-(2-methyl-5-phenylpyrazol-3-yl)oxybenzonitrile]
19 | 10 to 1000 nM | Cc1cc(Oc2cc(C#N)ccc2-c2ccc([C@H](O)CN)cn2)cc(C2CCOCC2)n1 [compound 580, 4-[5-[(1S)-2-amino-1-hydroxyethyl]pyridin-2-yl]-3-[2-methyl-6-(oxan-4-yl)pyridin-4-yl]oxybenzonitrile]
20 | > 1000 nM | Cn1nc(C2CC2)cc1Oc1cc(C#N)ccc1-c1nnc(CN)s1 [compound 582, 4-[5-(aminomethyl)-1,3,4-thiadiazol-2-yl]-3-(5-cyclopropyl-2-methylpyrazol-3-yl)oxybenzonitrile]
21 | > 1000 nM | Cn1nc(-c2ccccc2)cc1Oc1cc(C#N)ccc1-c1nnc(CN)s1 [compound 583, 4-[5-(aminomethyl)-1,3,4-thiadiazol-2-yl]-3-(2-methyl-5-phenylpyrazol-3-yl)oxybenzonitrile]
22 | > 1000 nM | Cn1nc(C2CC2)cc1Oc1cc(C#N)ccc1-c1ncc(CN)o1 [compound 584, 4-[5-(aminomethyl)-1,3-oxazol-2-yl]-3-(5-cyclopropyl-2-methylpyrazol-3-yl)oxybenzonitrile]
23 | > 1000 nM | Cn1nc(C2CC2)cc1Oc1cc(C#N)ccc1-c1cc(OCCCN)ccn1 [compound 585, 4-[4-(3-aminopropoxy)pyridin-2-yl]-3-(5-cyclopropyl-2-methylpyrazol-3-yl)oxybenzonitrile]
24 | > 1000 nM | Cn1nc(C2CC2)cc1Oc1cc(C#N)ccc1-c1cc(NCCCO)ccn1 [compound 586, 3-(5-cyclopropyl-2-methylpyrazol-3-yl)oxy-4-[4-(3-hydroxypropylamino)pyridin-2-yl]benzonitrile]
25 | < 10 nM | Cn1nc(-c2ccccn2)cc1Oc1cc(C#N)ccc1-c1cc(CCN)ccn1 [compound 587, 4-[4-(2-aminoethyl)pyridin-2-yl]-3-(2-methyl-5-pyridin-2-ylpyrazol-3-yl)oxybenzonitrile]
26 | 10 to 1000 nM | Cn1nc(-c2ncco2)cc1Oc1cc(C#N)ccc1-c1ccc([C@H](O)CN)cn1 [compound 588, 4-[5-[(1S)-2-amino-1-hydroxyethyl]pyridin-2-yl]-3-[2-methyl-5-(1,3-oxazol-2-yl)pyrazol-3-yl]oxybenzonitrile]
27 | 10 to 1000 nM | Cn1nc(-c2ccccn2)cc1Oc1cc(C#N)ccc1-c1ccc(CN)n2cnnc12 [compound 589, 4-[5-(aminomethyl)-[1,2,4]triazolo[4,3-a]pyridin-8-yl]-3-(2-methyl-5-pyridin-2-ylpyrazol-3-yl)oxybenzonitrile]
28 | > 1000 nM | Cc1cc(Oc2cc(C#N)ccc2-c2ccc(CN)n3cnnc23)cc(N2CCOCC2)n1 [compound 590, 4-[5-(aminomethyl)-[1,2,4]triazolo[4,3-a]pyridin-8-yl]-3-(2-methyl-6-morpholin-4-ylpyridin-4-yl)oxybenzonitrile]
29 | > 1000 nM | Cc1cc(Oc2cc(C#N)ccc2-c2ccc([C@H](O)CN)cn2)cc(OC2COC2)n1 [compound 591, 4-[5-[(1S)-2-amino-1-hydroxyethyl]pyridin-2-yl]-3-[2-methyl-6-(oxetan-3-yloxy)pyridin-4-yl]oxybenzonitrile]
30 | < 10 nM | Cn1nc(-c2nccs2)cc1Oc1cc(C#N)ccc1-c1ncc(CN)cn1 [compound 592, 4-[5-(aminomethyl)pyrimidin-2-yl]-3-[2-methyl-5-(1,3-thiazol-2-yl)pyrazol-3-yl]oxybenzonitrile]
31 | > 1000 nM | Cc1cc(Oc2cc(C#N)ccc2-c2nnc(CN)s2)cc(N2CCOCC2)n1 [compound 593, 4-[5-(aminomethyl)-1,3,4-thiazol-2-yl]-3-(2-methyl-6-morpholin-4-ylpyridin-4-yl)oxybenzonitrile]
